In PMC8371902, “Phase 1 study of M2698, a p70S6K/AKT dual inhibitor, in patients with advanced cancer” (Journal of Hematology & Oncology, 2021):
Entries after “also recorded” stand apart in the source; their conditions may differ.

Test system: patients with advanced metastatic cancer
Excerpt: In this phase 1 study, dose escalation was followed by expansion cohorts of once-daily, oral M2698 in continuous 21-day cycles. Primary objectives were to determine the maximum tolerated dose (MTD), dose-limiting toxicities (DLTs), and recommended phase 2 dose (RP2D). Secondary objectives were to assess safety and tolerability, pharmacokinetics (PK, including food effect) and antitumor activity. Pharmacodynamic biomarker assessments were exploratory. Treatment was discontinued if there was disease progression, toxicity or consent withdrawal.
In Part 1, M2698 monotherapy was investigated in a dose escalation with a food effect cohort. In Part 2, M2698 was investigated as monotherapy (expansion cohort) to further characterize safety, tolerability and pharmacokinetics, and assess antitumor activity in PAM + patients without confounding markers (exploratory).
Dose escalation analysis included all patients who experienced a DLT and those who received ≥ 80% of planned M2698 doses in cycle 1 without experiencing a DLT. Safety analysis included all patients who received ≥ 1 dose of M2698. PK analysis included all patients who received ≥ 1 dose of M2698 and had measurable plasma concentrations. Dose proportionality was tested using the power model (linear regression approach on the log -transformed scale).

Structure (SMILES): NC(=O)c1cccc2c(N[C@H](CN3CCC3)c3ccc(Cl)c(C(F)(F)F)c3)ncnc12 [M2698]
- M2698-related TEAE: Vomiting (Overall N=62): 2 (3.2) n (%)
- M2698-related TEAE: White blood cell count decreased (Overall N=62): 1 (1.6) n (%)
- Maximum tolerated dose (MTD) of M2698 (daily): no formal MTD was determined; also recorded: no MTD was reached
- Number of DLTs observed (dose escalation): two
- Grade >3 TEAE: GGT increased (in vivo): 4.8%
- Grade >3 TEAE: abdominal pain (in vivo): 3.2%
- Grade >3 TEAE: acute kidney injury (in vivo): 4.8%
- Grade >3 TEAE: acute respiratory failure (in vivo): 3.2%
- Grade >3 TEAE: anemia (in vivo): 9.7%
- Grade >3 TEAE: blood AP increased (in vivo): 3.2%
- Grade >3 TEAE: blood creatine phosphokinase increased (in vivo): 3.2%
- Grade >3 TEAE: cardiac arrest (in vivo): 3.2%
- Grade >3 TEAE: constipation (in vivo): 3.2%
- Grade >3 TEAE: disease progression (in vivo): 3.2%
- Grade >3 TEAE: hypertension (in vivo): 3.2%
- Grade >3 TEAE: hyponatremia (in vivo): 6.5%
- Grade >3 TEAE: nausea (in vivo): 3.2%
- Grade >3 TEAE: pleural effusion (in vivo): 3.2%
- Grade >3 TEAE: pneumonia (in vivo): 4.8%
- Grade >3 TEAE: septic shock (in vivo): 3.2%
- Grade >3 TEAE: small intestinal obstruction (in vivo): 3.2%
- Grade >3 TEAE: urinary tract infection (in vivo): 4.8%
- Grade >3 TEAE: vomiting (in vivo): 4.8%
- M2698-related TEAE abnormal dreams (in vivo): 9.7%
- M2698-related TEAE diarrhea (in vivo): 11.3%
- M2698-related TEAE fatigue (in vivo): 6.5%
- M2698-related TEAE nausea (in vivo): 19.4%
- M2698-related TEAE tremor (in vivo): 6.5%
- M2698-related TEAE: Abnormal dreams (in vivo): 6 (9.7) number of patients (percent)
- M2698-related TEAE: Diarrhea (in vivo): 7 (11.3) number of patients (percent)
- M2698-related TEAE: Fatigue (in vivo): 4 (6.5) number of patients (percent)
- M2698-related TEAE: Nausea (in vivo): 12 (19.4) number of patients (percent)
- M2698-related TEAE: Tremor (in vivo): 4 (6.5) number of patients (percent)
- M2698-related TEAEs: patients with ≥1 event (in vivo): 34 (54.8) number of patients (percent)
- Patients with M2698-related TEAEs (in vivo): 54.8%
- Patients with M2698-related TEAEs grade ≥ 3 (in vivo): 12.9%
- Serious TEAE related to M2698 (in vivo): 5 (8.1) number of patients (percent)
- Serious TEAEs (in vivo): 26 (41.9) number of patients (percent)
- Serious TEAEs attributed to M2698 (in vivo): 8.1 % of patients
- TEAE leading to permanent discontinuation of any trial treatment (in vivo): 6 (9.7%) number of patients (percent)
- TEAE leading to temporary discontinuation of M2698 (in vivo): 29 (46.8%) number of patients (percent)
- TEAE related to M2698 (in vivo): 34 (54.8%) number of patients (percent)
- TEAE related to M2698, grade ≥ 3 (in vivo): 8 (12.9%) number of patients (percent)
- TEAE: ALT increased (in vivo): 4 (6.5) n (%)
- TEAE: AST increased (in vivo): 2 (3.2) n (%)
- TEAE: Abdominal pain (in vivo): 5 (8.1) n (%)
- TEAE: Abnormal dreams (in vivo): 6 (9.7) n (%)
- TEAE: Anemia (in vivo): 13 (21.0) n (%)
- TEAE: Anxiety (in vivo): 6 (9.7) n (%)
- TEAE: Arthralgia (in vivo): 1 (1.6) n (%)
- TEAE: Asthenia (in vivo): 2 (3.2) n (%)
- TEAE: Back pain (in vivo): 2 (3.2) n (%)
- TEAE: Blood AP increased (in vivo): 4 (6.5) n (%)
- TEAE: Blood bilirubin increased (in vivo): 2 (3.2) n (%)
- TEAE: Blood creatinine increased (in vivo): 7 (11.3) n (%)
- TEAE: Chills (in vivo): 2 (3.2) n (%)
- TEAE: Constipation (in vivo): 14 (22.6) n (%)
- TEAE: Cough (in vivo): 11 (17.7) n (%)
- TEAE: Decreased appetite (in vivo): 9 (14.5) n (%)
- TEAE: Dehydration (in vivo): 7 (11.3) n (%)
- TEAE: Depression (in vivo): 3 (4.8) n (%)
- TEAE: Diarrhea (in vivo): 17 (27.4) n (%)
- TEAE: Disease progression (in vivo): 2 (3.2) n (%)
- TEAE: Dizziness (in vivo): 9 (14.5) n (%)
- TEAE: Dry mouth (in vivo): 3 (4.8) n (%)
- TEAE: Dry skin (in vivo): 0 (0) n (%)
- TEAE: Dyspnea (in vivo): 4 (6.5) n (%)
- TEAE: Edema peripheral (in vivo): 1 (1.6) n (%)
- TEAE: Fatigue (in vivo): 21 (33.9) n (%)
- TEAE: GGT increased (in vivo): 7 (11.3) n (%)
- TEAE: Gait disturbance (in vivo): 2 (3.2) n (%)
- TEAE: Headache (in vivo): 3 (4.8) n (%)
- TEAE: Hyperglycemia (in vivo): 1 (1.6) n (%)
- TEAE: Hypertension (in vivo): 4 (6.5) n (%)
- TEAE: Hypoalbuminemia (in vivo): 5 (8.1) n (%)
- TEAE: Hypocalcemia (in vivo): 4 (6.5) n (%)
- TEAE: Hypokalemia (in vivo): 4 (6.5) n (%)
- TEAE: Hypomagnesemia (in vivo): 2 (3.2) n (%)
- TEAE: Hyponatremia (in vivo): 5 (8.1) n (%)
- TEAE: Insomnia (in vivo): 2 (3.2) n (%)
- TEAE: Muscle spasms (in vivo): 0 (0) n (%)
- TEAE: Muscular weakness (in vivo): 1 (1.6) n (%)
- TEAE: Nasopharyngitis (in vivo): 1 (1.6) n (%)
- TEAE: Nausea (in vivo): 23 (37.1) n (%)
- TEAE: Neutropenia (in vivo): 1 (1.6) n (%)
- TEAE: Pain in extremity (in vivo): 3 (4.8) n (%)
- TEAE: Pyrexia (in vivo): 11 (17.7) n (%)
- TEAE: Rash (in vivo): 1 (1.6) n (%)
- TEAE: Tremor (in vivo): 5 (8.1) n (%)
- TEAE: Urinary tract infection (in vivo): 5 (8.1) n (%)
- TEAE: Vision blurred (in vivo): 3 (4.8) n (%)
- TEAE: Vomiting (in vivo): 12 (19.4) n (%)
- TEAE: Weight decrease (in vivo): 4 (6.5) n (%)
- TEAEs (in vivo): 61 (98.4%) number of patients (percent)
- TEAEs, grade ≥ 3 (in vivo): 36 (58.1%) number of patients (percent)
- TEAE leading to death (no deaths considered related to M2698, trastuzumab or tamoxifen): 6 (9.7) number of patients (percent)
- Recommended phase 2 dose (RP2D) of M2698 (once daily (QD)): 240 mg
- Psychiatric event attributed to M2698 (one patient, 320 mg, cycle 2): grade 3 psychosis
- Grade 2–3 gastrointestinal adverse events requiring dose reduction (patients with prolonged exposure to M2698 ≥ 320 mg): 19.4%
